In US20090246145A1, “Imaging Correlates of Neurogenesis With MRI” (priority 2005, published 2009):
Read-outs that look alike come from different tables or passages of the source.

Key:
[1] = system: adult hippocampal neural progenitor cells; settings: in vivo; mediated at least in part by NeuroD (Hao 2004; Hsieh 2004); cited from earlier work
[2] = in vivo
Description: Three scout scans are first acquired to position the subsequent T2 weighted images along the standard anatomical orientations in a reproducible manner. T2 weighted axial images are acquired with multislice fast spin echo (FSE) sequence using TR/TEeff=[…]/80 ms, rapid acquisition with relaxation enhancement (RARE) factor=16, FOV=26 mm, acquisition matrix=256×256, slice thickness 0.6 mm, slice gap=0.1 mm and NEX 28. The in-plane resolution is 100 μm. This sequence is repeated 4 times, for a total imaging time of 60 minutes. The first 15 minutes correspond to pre-gadolinium image, after this time period a delay of 1-2 minutes precede the ip gadolinium injection while the mouse is being imaged. The injection lasts 30 seconds. All images are acquired utilizing the same dynamic range, so there is no risk of rescale.
An intravascular contrast agent is required to generate a CBV map of the brain. Different contrast agents have been used for CBV mapping in rodents. Most studies to date have relied on intravenous injections for contrast delivery. Because IV delivery is often problematic in rodents, associated with frequent morbidity and even occasional mortality, it is not ideally suited for longitudinal studies imaging rodents repeatedly over time. […]

[3] = gas anesthesia during MRI, cited from earlier work

For `CCCC(CCC)C(=O)O` [VPA, 2-propylpentanoic acid], the “Induction of adult hippocampal neural progenitor cells to differentiate into neurons” value [1] is given as “induce adult hippocampal neural progenitor cells to differentiate predominantly into neurons”.
For `CNC(=O)CN(CCN(CCN(CC(=O)[O-])CC(=O)NC)CC(=O)[O-])CC(=O)[O-].[Gd+3]` [gadolinium, gadodiamide], the “IP dose above which gadolinium has toxic effects (mainly transient unsteady gait, possibly vertigo)” value [2] was “Above 10 mMol”.
In the case of `FC(F)OC(Cl)C(F)(F)F` (stereo not shown) [isoflurane], the “Cerebral hemodynamic change produced by anesthetic” value [3] is given as “none or minimal cerebral hemodynamic changes” and the “Cerebral hemodynamic change produced by anesthetic” value ([3]; listed as Isofluorane) is given as “minimal cerebral hemodynamic change”.
